Results published in paper PMC10410819, “Potential antihypertensive activity of novel peptides from green basil leaves” (BMC Complementary Medicine and Therapies, 2023).
One block for each molecule: values may come before it. Residues, ends and D or L forms follow the SMILES beside them. No end group written: not given here.

Columns and labels:
ACE = target: T1, ACE (Homo sapiens, UniProt P12821); assay: ACE inhibitory activity assay kit; type: biochemical; settings: synthetic peptides; captopril positive control; read-out: IC50 ACE inhibition
T1 construct: purchased Dojindo Molecular Technology Inc., Kumamoto, Japan
T1 sequence (P12821 30-1306, species assumed): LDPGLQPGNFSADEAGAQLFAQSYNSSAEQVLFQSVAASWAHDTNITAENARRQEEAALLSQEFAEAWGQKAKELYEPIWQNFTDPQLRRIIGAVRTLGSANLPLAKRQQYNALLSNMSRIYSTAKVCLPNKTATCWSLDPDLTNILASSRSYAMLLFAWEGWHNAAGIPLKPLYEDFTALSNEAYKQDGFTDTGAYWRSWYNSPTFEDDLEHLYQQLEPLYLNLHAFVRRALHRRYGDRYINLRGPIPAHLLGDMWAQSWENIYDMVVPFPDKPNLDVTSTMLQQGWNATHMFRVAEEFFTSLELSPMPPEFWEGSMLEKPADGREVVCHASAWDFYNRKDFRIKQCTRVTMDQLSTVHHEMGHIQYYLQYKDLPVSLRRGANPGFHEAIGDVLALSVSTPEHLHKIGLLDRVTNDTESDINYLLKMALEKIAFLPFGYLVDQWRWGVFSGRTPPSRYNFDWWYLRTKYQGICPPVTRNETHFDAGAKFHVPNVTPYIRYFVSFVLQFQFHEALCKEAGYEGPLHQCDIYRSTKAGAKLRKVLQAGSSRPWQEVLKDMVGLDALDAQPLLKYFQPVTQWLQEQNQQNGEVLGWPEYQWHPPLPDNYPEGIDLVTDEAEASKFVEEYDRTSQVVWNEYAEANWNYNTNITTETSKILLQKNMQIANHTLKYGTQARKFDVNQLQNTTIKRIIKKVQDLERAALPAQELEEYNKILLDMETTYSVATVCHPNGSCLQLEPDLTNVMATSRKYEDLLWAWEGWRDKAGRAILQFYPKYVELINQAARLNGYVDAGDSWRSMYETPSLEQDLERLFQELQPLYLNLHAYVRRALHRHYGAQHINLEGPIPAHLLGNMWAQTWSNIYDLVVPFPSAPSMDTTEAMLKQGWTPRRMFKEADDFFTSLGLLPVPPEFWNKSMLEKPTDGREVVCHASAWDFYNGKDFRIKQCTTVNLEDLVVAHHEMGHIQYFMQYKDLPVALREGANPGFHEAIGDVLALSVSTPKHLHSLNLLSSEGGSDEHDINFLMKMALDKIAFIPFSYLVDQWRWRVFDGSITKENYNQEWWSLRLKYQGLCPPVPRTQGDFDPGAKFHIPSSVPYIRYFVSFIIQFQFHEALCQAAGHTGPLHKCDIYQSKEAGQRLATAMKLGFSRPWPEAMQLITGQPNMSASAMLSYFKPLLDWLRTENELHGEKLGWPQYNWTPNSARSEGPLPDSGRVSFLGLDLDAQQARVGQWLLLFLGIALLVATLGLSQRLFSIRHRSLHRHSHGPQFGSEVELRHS
Method: ACE inhibitory activity assay kit (Dojindo Molecular Technology Inc., Kumamoto, Japan) was used for the measurement of ACE inhibition in proteins derived from basil leaves before and after digestion according to the company manual. Briefly, 10 µl of each sample, substrate buffer, and enzyme mixture were mixed and incubated in 96-well plate at 37 °C for 1 h before measuring ACE inhibition at 450 nm of absorption (A). The ACE inhibitory activity was calculated and calculated as follows: inhibitory activity (%) = [(Awithout sample − Awith sample)/(Awithout sample − Ablank)] × 100.

[1] = test system: L-NAME-treated male Wistar rats; assay: Serum lipid profile, glucose, kidney and liver function and ORAC in L-NAME-treated rats; type: in vivo, rat; settings: mean, 3 weeks oral gavage, lisinopril 10 mg/kg BW/day, peptides 30 mg/kg BW/day, n = 5
Method: (§1) After 1 week of acclimation, 25 male Wistar rats were separated randomly into two groups of control rat (NC; n = 5) with distilled water and L-NAME-treated rat (n = 20). At this step, distilled water was orally gavaged to NC rat at 1 mL/100 g BW. L-NAME at a final concentration of 40 mg/kg BW in 1 mL distilled water was orally gavage to induce hypertension in rat at a dose of 40 mg/kg BW for 3 weeks. Thereafter, L-NAME treated rats were randomly classified into the following four groups: L-NAME untreated rat (HT; n = 5); L-NAME + lisinopril rat (HTD; n = 5); L-NAME + peptide 1 at 30 mg/kg rat (HTP1; n = 5); and L-NAME + peptide 2 at 30 mg/kg rat (HTP2; n = 5); for the remaining 3 weeks. NC (n = 5) was still orally gavaged with distilled water. The peptides were diluted in distilled water to obtain a final concentration of 30 mg/1 mL and immediately gavaged to rat at a dose of 30 mg/kg BW/day). Lisinopril was diluted in distilled water to obtain a final concentration of 10 mg/1 mL and immediately orally gavaged to rat at a dose of 10 mg/kg BW/day. At the end of the experiment, each rat was fasted for approximately 12–16 h and euthanized with CO2 inhalation. […] The separated serum was collected and preserved at − 80 °C until further analysis. Then, the liver, heart, spleen, and kidneys were collected, trimmed, washed with normal saline, wiped with filter paper, and weighed.
One thousand microlite of serum was used for measuring the lipid profiles, including total cholesterol, triglyceride (TG), low-density lipoprotein (LDL)-cholesterol (C), high-density lipoprotein (HDL)-C, glucose levels, kidney (blood urea nitrogen and creatinine concentrations) and liver function [alanine aminotransaminase (ALT), aspartate transaminase (AST), and alkaline phosphatase ([…])] parameters using the Cobas 6800/8800 systems (Roche Group, Switzerland). ORAC in rat serum was measured with a fluorescent microplate reader at Ex/Em = 480/520 nm, as previously mentioned.

[2] = test system: L-NAME-treated male Wistar rats; assay: Organ weights of L-NAME-treated rats; type: in vivo, rat; settings: vs NC group; after 3 weeks treatment
Method: as §1

[3] = test system: L-NAME-treated male Wistar rats; assay: Serum nitrite/nitrate in L-NAME-treated rats; type: in vivo, rat; settings: mean ± standard error; 3 weeks oral gavage; lisinopril 10 mg/kg, peptide 30 mg/kg BW/day
Method: as §1
(§2) The levels of nitrite and nitrate, which are metabolites of nitric oxide (NO), were measured using 50 µl of rat serum utilizing the calorimetric method (Nitrite/nitrate Kit, Sigma-Aldrich, 2 Science Park Dr, SG), according to company protocol. Angiotensin II peptide levels were quantified by using EIA kits (Angiotensin II EIA, Sigma-Aldrich, MO, USA), as per the manufacturer’s instructions).

[4] = test system: L-NAME-treated male Wistar rats; assay: Serum angiotensin II peptide (EIA) in L-NAME-treated rats; type: in vivo, rat; settings: median (interquartile range); 3 weeks oral gavage; lisinopril 10 mg/kg, peptides 30 mg/kg BW/day
Method: After 1 week of acclimation, 25 male Wistar rats were separated randomly into two groups of control rat (NC; n = 5) with distilled water and L-NAME-treated rat (n = 20). At this step, distilled water was orally gavaged to NC rat at 1 mL/100 g BW. L-NAME at a final concentration of 40 mg/kg BW in 1 mL distilled water was orally gavage to induce hypertension in rat at a dose of 40 mg/kg BW for 3 weeks. Thereafter, L-NAME treated rats were randomly classified into the following four groups: L-NAME untreated rat (HT; n = 5); L-NAME + lisinopril rat (HTD; n = 5); L-NAME + peptide 1 at 30 mg/kg rat (HTP1; n = 5); and L-NAME + peptide 2 at 30 mg/kg rat (HTP2; n = 5); for the remaining 3 weeks. NC (n = 5) was still orally gavaged with distilled water. The peptides were diluted in distilled water to obtain a final concentration of 30 mg/1 mL and immediately gavaged to rat at a dose of 30 mg/kg BW/day). […]
as §2

[5] = test system: L-NAME-treated male Wistar rats; assay: Body weight of L-NAME-treated rats; type: in vivo, rat; settings: vs L-NAME-treated rats; 3 weeks treatment
Method: as §1

[6] = test system: L-NAME-treated male Wistar rats; assay: Platelet count and white blood cell levels of L-NAME-treated rats; type: in vivo, rat; settings: effect of treatment in the L-NAME treated group; 3 weeks
Method: as §1

[7] = target: Angiotensin-converting enzyme (UniProt P12821)
Sequence of Angiotensin-converting enzyme (P12821 30-1256): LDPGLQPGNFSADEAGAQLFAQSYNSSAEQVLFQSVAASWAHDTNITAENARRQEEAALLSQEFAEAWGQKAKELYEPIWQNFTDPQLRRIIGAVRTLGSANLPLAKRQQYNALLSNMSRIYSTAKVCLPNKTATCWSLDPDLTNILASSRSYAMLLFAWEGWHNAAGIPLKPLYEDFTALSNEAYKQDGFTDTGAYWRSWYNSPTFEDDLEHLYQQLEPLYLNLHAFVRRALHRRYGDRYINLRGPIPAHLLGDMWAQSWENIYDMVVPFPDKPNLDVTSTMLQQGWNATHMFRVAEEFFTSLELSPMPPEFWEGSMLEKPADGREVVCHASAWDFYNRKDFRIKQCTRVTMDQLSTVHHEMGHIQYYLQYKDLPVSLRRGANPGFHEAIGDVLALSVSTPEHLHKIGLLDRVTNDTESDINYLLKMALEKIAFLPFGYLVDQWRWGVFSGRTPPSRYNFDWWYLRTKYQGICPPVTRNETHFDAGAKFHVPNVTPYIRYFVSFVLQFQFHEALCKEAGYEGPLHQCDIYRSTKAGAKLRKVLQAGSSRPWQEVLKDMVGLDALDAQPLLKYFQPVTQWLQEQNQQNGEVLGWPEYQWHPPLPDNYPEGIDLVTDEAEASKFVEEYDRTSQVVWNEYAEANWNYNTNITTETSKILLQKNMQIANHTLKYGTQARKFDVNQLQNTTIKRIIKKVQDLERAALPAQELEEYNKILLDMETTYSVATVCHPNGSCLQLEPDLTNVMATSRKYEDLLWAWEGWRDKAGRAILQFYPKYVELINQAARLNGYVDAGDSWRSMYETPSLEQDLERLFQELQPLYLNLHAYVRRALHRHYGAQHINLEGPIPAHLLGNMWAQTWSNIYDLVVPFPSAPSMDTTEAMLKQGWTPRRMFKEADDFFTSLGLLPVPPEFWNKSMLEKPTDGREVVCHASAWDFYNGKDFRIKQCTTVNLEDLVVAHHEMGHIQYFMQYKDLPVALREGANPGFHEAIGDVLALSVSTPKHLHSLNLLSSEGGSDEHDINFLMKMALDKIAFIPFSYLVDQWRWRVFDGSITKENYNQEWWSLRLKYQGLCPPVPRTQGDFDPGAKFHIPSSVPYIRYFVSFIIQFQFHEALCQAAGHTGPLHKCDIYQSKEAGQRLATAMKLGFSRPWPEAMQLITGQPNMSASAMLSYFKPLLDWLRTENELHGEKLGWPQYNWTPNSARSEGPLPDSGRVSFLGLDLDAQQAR

IC50 (ACE): 121 µM
Molecule: LDSKHEAP [Leu-Asp-Ser-Lys-His-Glu-Ala-Pro]

IC50 (ACE): 119 µM
Molecule: PTTKTNVPPHF [Pro-Thr-Thr-Lys-Thr-Asn-Val-Pro-Pro-His-Phe]

IC50 (ACE): 103 µM
Molecule: HCGDGDAPY [His-Cys-Gly-Asp-Gly-Asp-Ala-Pro-Tyr]

IC50 (ACE): 10 µM
Molecule: HVLSA [His-Val-Leu-Ser-Ala]

IC50 (µM) ACE inhibition (ACE inhibitory activity assay kit, absorbance at 450 nM) [7]: 44.2 µM
Molecule: Tyr-Ser-Phe (peptide)

IC50 (µM) ACE inhibition (ACE inhibitory activity assay kit, absorbance at 450 nM) [7]: 119 µM
Molecule: PTTKTNVPPHF [Pro-Thr-Thr-Lys-Thr-Asn-Val-Pro-Pro-His-Phe]

IC50 (µM) ACE inhibition (ACE inhibitory activity assay kit, absorbance at 450 nM) [7]: 121 µM
Molecule: LDSKHEAP [Leu-Asp-Ser-Lys-His-Glu-Ala-Pro]

IC50 (µM) ACE inhibition (ACE inhibitory activity assay kit, absorbance at 450 nM) [7]: 10 µM
Molecule: HVLSA [His-Val-Leu-Ser-Ala]

Further lines, the molecule ahead of its results:

Molecule: DLSSAP [Asp-Leu-Ser-Ser-Ala-Pro]
IC50 (ACE): 4.75 µM | ALP ([1]; serum): 135.00 U/L | ALT ([1]; serum): 31.50 U/L | AST ([1]; serum): 67.00 U/L | BUN ([1]; serum): 19.70 mg/dL | weight of the livers [2]: significantly lower

Molecule: N[C@@H](Cc1ccc(O)cc1)C(=O)N[C@@H](CO)C(=O)N[C@@H](Cc1ccccc1)C(=O)O [Tyr-Ser-Phe] (H-Tyr-Ser-Phe-OH; N-terminus and C-terminus assumed)
IC50 (ACE): 44.2 µM

Molecule: DSVSASP [Asp-Ser-Val-Ser-Ala-Ser-Pro]
IC50 (ACE): 117 µM | ALP ([1]; serum): 159.00 U/L | ALT ([1]; serum): 38.50 U/L | AST ([1]; serum): 74.00 U/L | BUN ([1]; serum): 20.33 mg/dL | weight of the livers [2]: significantly lower

Molecule: NCCCC[C@H](N[C@@H](CCc1ccccc1)C(=O)O)C(=O)N1CCC[C@H]1C(=O)O [Lisinopril]
ORAC ([1]; rat serum): 0.19 µmol TE/dl | Cho/HDL ([1]; serum ratio): 2.69 | LDL/HDL ([1]; serum ratio): 0.22 | ALP ([1]; serum): 129.75 U/L | ALT ([1]; serum): 41.50 U/L | AST ([1]; serum): 67.75 U/L | BUN ([1]; serum): 19.83 mg/dL | Chol ([1]; serum): 86.25 mg/dL | Glucose ([1]; serum): 263.00 mg/dL | HDL ([1]; serum): 32.00 mg/dL | LDL ([1]; serum): 7.00 mg/dL | Tri ([1]; serum): 179.25 mg/dL | VLDL ([1]; serum): 35.75 mg/dL | serum concentration of nitrate [3]: 15.05 ± 1.95 ng/µL | serum concentration of nitrite [3]: 16.17 ± 2.99 ng/µL | serum concentration of total nitrate and nitrite (NOx) [3]: 31.22 ± 4.94 ng/µL | serum concentration of AGE II [4]: 5.19 (4.82) pg/mL | effect on rat BWs [5]: not significantly affected | weight of the livers [2]: significantly lower | platelet count and white blood cell levels [6]: did not affect

Molecule: EGSGKGVR [Glu-Gly-Ser-Gly-Lys-Gly-Val-Arg]
IC50 (ACE): 87.2 µM

Molecule: HCGDGDAPY [His-Cys-Gly-Asp-Gly-Asp-Ala-Pro-Tyr]
IC50 (µM) ACE inhibition (ACE inhibitory activity assay kit, absorbance at 450 nM) [7]: 103 µM

Molecule: DSVSASP [Asp-Ser-Val-Ser-Ala-Ser-Pro]
IC50 (µM) ACE inhibition (ACE inhibitory activity assay kit, absorbance at 450 nM) [7]: 117 µM

Molecule: EGSGKGVR [Glu-Gly-Ser-Gly-Lys-Gly-Val-Arg]
IC50 (µM) ACE inhibition (ACE inhibitory activity assay kit, absorbance at 450 nM) [7]: 87.2 µM

Molecule: DLSSAP [Asp-Leu-Ser-Ser-Ala-Pro]
IC50 (µM) ACE inhibition (ACE inhibitory activity assay kit, absorbance at 450 nM) [7]: 4.75 µM
